Common to all, as to type: cell-based
In assay [1] the test system is U118 glioblastoma cell line. Put plainly: In-vitro cell survival assay (Alamar blue), U118. The note with it: U118, one day after compound addition. The protocol: (§1) Five tumor-derived cell lines were treated with the ROS inhibitor compounds and cell survival was monitored to determine the cancer prohibition effects of the compounds. The cell lines included HeLa, a cervical cancer cell line, and four glioblastoma cell lines U138, U87, LN18, and U118. The basic protocol for the in-vitro cell survival assay is the same for all five cell lines. In particular, the cells were seeded in 96-well plates at 2-5×10^3 cells/well (cell line dependent) in culture medium. The cells were grown for 2 days before the compounds were dissolved in DMSO and added to final concentrations of 100 uM, 10 uM, or 1 uM (DMSO final concentration 0.5%). The cell culture was then assayed one day after the addition of the compounds. The assay used Alamar blue as a redox-sensitive dye that interrogates mitochondrial fitness of cells, and these assays provided a readout for cell proliferation and viability. The raw values were normalized to an average of several vehicle control wells and are presented as percent decrease in proliferation/viability, which is converted to half maximal effective concentration (EC50) values.

For assay [2], the system named is HeLa cervical cancer cell line. Description: In-vitro cell survival assay (Alamar blue), HeLa. The note with it: one day after compound addition. The protocol: as §1
(The colour change of resazurin is a common sign of viable cells or microbes.)

Assay [3] relates to U138 glioblastoma cell line. Description: In-vitro cell survival assay (Alamar blue), U138. The note with it: U138, one day after compound addition. The protocol: as §1
Assay [4] deals with U87 glioblastoma cell line. Put plainly: In-vitro cell survival assay (Alamar blue), U87. The conditions noted are these: U87, one day after compound addition. The protocol:
as §1

For assay [5], the system named is LN18 glioblastoma cell line. Description: In-vitro cell survival assay (Alamar blue), LN18. The note with it: LN18, one day after compound addition. The protocol:
as §1

For `O=C(NC[C@H]1Cc2cc(-c3cncnc3)cc(Cl)c2O1)c1cccc(Cn2cccn2)c1`, the EC50 in assay [1] (24 h) was above 100 µM; in assay [2] (Homo sapiens, 24 h) it was above 100 µM; in assay [3] (24 h) it was above 100 µM; in assay [4] (24 h), above 100 µM; in assay [5] (Homo sapiens, LN-18, 24 h) it was above 100 µM.
On to `Cc1cc(C)n(-c2cccc(C(=O)NC[C@H]3Cc4cc(Cl)cc(-c5cnccn5)c4O3)c2)n1`, for which the EC50 in assay [1] (24 h) is 96 µM; in assay [2] (Homo sapiens, 24 h), 70 µM; in assay [3] (24 h), above 100 µM; in assay [4] (24 h) it was 94 µM; in assay [5] (Homo sapiens, LN-18, 24 h) it was 64 µM.
In the case of `COc1ccccc1C1C(C#N)=C(N)Oc2[nH]nc(C(F)(F)F)c21` (stereo not shown), the EC50 in assay [1] is above 100 µM; in assay [2], 90 µM; in assay [3], 84 µM; in assay [4] it was 80 µM; in assay [5] it was 62 µM.
For the compound `Nc1nc(Nc2ccc(C(=O)N3CCC[C@H]4CCCC[C@H]43)cc2)cc(Nc2ccc3ncsc3c2)n1`, the EC50 is above 100 µM in assay [1] (24 h); 58 µM in assay [2] (Homo sapiens, 24 h); above 100 µM in assay [3] (24 h); 30 µM in assay [4] (24 h); 14 µM in assay [5] (Homo sapiens, LN-18, 24 h).
Consider `COc1ccc(C(NC(=O)c2[nH]nc(-c3ccccc3)c2C)c2ccncc2)cc1` (stereo not shown), for which the EC50 in assay [1] was above 100 µM; in assay [2], above 100 µM; in assay [3] it was above 100 µM; in assay [4], above 100 µM; in assay [5], 59 µM.
Turning to `O=C(NC[C@@H]1CCCO1)c1cccc(Nc2nccc(Nc3ccc4ncsc4c3)n2)c1`, the EC50 in assay [1] (24 h) was above 100 µM; in assay [2] (Homo sapiens, 24 h) it was 11 µM; in assay [3] (24 h), above 100 µM; in assay [4] (24 h), 16 µM; in assay [5] (Homo sapiens, LN-18, 24 h), 15 µM.
For `O=C(c1ccccc1)n1nc(-c2ccco2)nc1NCc1ccccc1`, the EC50 in assay [1] (24 h) is above 100 µM; in assay [2] (Homo sapiens, 24 h) it was above 100 µM; in assay [3] (24 h), above 100 µM; in assay [4] (24 h), above 100 µM; in assay [5] (Homo sapiens, LN-18, 24 h), above 100 µM.
With `Cc1ccc(Cn2c(NCc3nc4ccccc4n3C)nc3ccccc32)cc1` [drawing 355], the EC50 in assay [1] (24 h) was above 100 µM; in assay [2] (Homo sapiens, 24 h) it was above 100 µM; in assay [3] (24 h), above 100 µM; in assay [4] (24 h), above 100 µM; in assay [5] (Homo sapiens, LN-18, 24 h), above 100 µM.
Regarding `NC(=O)c1c(NC(=O)[C@H]2CC(=O)N(c3ccccc3)C2)sc2c1CCCC2` [drawing 356], the EC50 in assay [1] (24 h) was above 100 µM; in assay [2] (Homo sapiens, 24 h) it was above 100 µM; in assay [3] (24 h) it was above 100 µM; in assay [4] (24 h), above 100 µM; in assay [5] (Homo sapiens, LN-18, 24 h), above 100 µM.
In the case of `Clc1ccc2nc(NCc3ccccn3)nc(-c3ccccc3)c2c1` [drawing 357], the EC50 was above 100 µM in assay [1] (24 h); above 100 µM in assay [2] (Homo sapiens, 24 h); above 100 µM in assay [3] (24 h); 71 µM in assay [4] (24 h); 16 µM in assay [5] (Homo sapiens, LN-18, 24 h).
Take `NS(=O)(=O)c1ccc(CCNC(=O)c2cc(-c3cccs3)nc3ccccc23)cc1` [drawing 358]: the half-maximal effective concentration (EC50) was 29 µM in assay [1] (24 h); above 100 µM in assay [2] (Homo sapiens, 24 h); above 100 µM in assay [3] (24 h); above 100 µM in assay [4] (24 h); 25 µM in assay [5] (Homo sapiens, LN-18, 24 h).
With `Cc1[nH]c2nc(NCc3cccc([N+](=O)[O-])c3)nn2c(=O)c1Cc1ccccc1` [drawing 359], the EC50 is above 100 µM in assay [1] (24 h); above 100 µM in assay [2] (Homo sapiens, 24 h); above 100 µM in assay [3] (24 h); 45 µM in assay [4] (24 h); above 100 µM in assay [5] (Homo sapiens, LN-18, 24 h).
Regarding `COc1ccccc1-c1cc(C(F)F)n2ncc(C(=O)NCc3cccnc3)c2n1` [drawing 361], the EC50 in assay [1] (24 h) was above 100 µM; in assay [2] (Homo sapiens, 24 h), above 100 µM; in assay [3] (24 h) it was above 100 µM; in assay [4] (24 h), 22 µM; in assay [5] (Homo sapiens, LN-18, 24 h), 16 µM.
Take `CCOC(Nc1cc(-c2sccc2-n2c(C)ccc2C)[nH]n1)OCC` [drawing 364]: the EC50 in assay [1] was above 100 µM; in assay [2], above 100 µM; in assay [3] it was above 100 µM; in assay [4] it was 26 µM; in assay [5], above 100 µM.
Consider `O=c1cc(Oc2ccccc2)c(-c2nc[nH]n2)nn1-c1ccccc1` [drawing 365], for which the half-maximal effective concentration (EC50) in assay [1] was above 100 µM; in assay [2], above 100 µM; in assay [3] it was above 100 µM; in assay [4], 26 µM; in assay [5], above 100 µM.
`O=C(NNc1nc2ccccc2nc1Cc1ccccc1)c1cccc(Cl)c1` [drawing 366]: the EC50 in assay [1] (24 h) was above 100 µM; in assay [2] (Homo sapiens, 24 h) it was above 100 µM; in assay [3] (24 h) it was above 100 µM; in assay [4] (24 h), 25 µM; in assay [5] (Homo sapiens, LN-18, 24 h) it was 22 µM.
For the compound `Cc1cccc(Nc2ccnc(Nc3cccc(C(=O)N4CC=CCC4)c3)n2)c1` [drawing 371], the EC50 in assay [1] (24 h) was 28 µM; in assay [2] (Homo sapiens, 24 h), 25 µM; in assay [3] (24 h) it was above 100 µM; in assay [4] (24 h), 17 µM; in assay [5] (Homo sapiens, LN-18, 24 h) it was 13 µM.
For the compound `O=C(NCCc1ccc(F)cc1)c1cccc(Nc2nccc(Nc3ccc4ncsc4c3)n2)c1` [drawing 372], the EC50 in assay [1] (24 h) is 9 µM; in assay [2] (Homo sapiens, 24 h), 5 µM; in assay [3] (24 h) it was 8 µM; in assay [4] (24 h), 10 µM; in assay [5] (Homo sapiens, LN-18, 24 h), 6 µM.
For the compound `CCN(CC)CCNC(=O)c1cccc(Nc2nccc(Nc3ccc4ncsc4c3)n2)c1` [drawing 373], the EC50 in assay [1] (24 h) was 35 µM; in assay [2] (Homo sapiens, 24 h) it was 15 µM; in assay [3] (24 h), 45 µM; in assay [4] (24 h), 37 µM; in assay [5] (Homo sapiens, LN-18, 24 h), 15 µM.
As to `Nc1nc(Nc2ccc(C(=O)NCc3ccco3)cc2)cc(Nc2ccc3ncsc3c2)n1` [drawing 375], the EC50 is 27 µM in assay [1] (24 h); 44 µM in assay [2] (Homo sapiens, 24 h); above 100 µM in assay [3] (24 h); 32 µM in assay [4] (24 h); 18 µM in assay [5] (Homo sapiens, LN-18, 24 h).
On the same counts, the results for `O=C(NCc1ccco1)c1cccc(Nc2nccc(Nc3ccc4ncsc4c3)n2)c1` [drawing 376] are 18 µM, 10 µM, 35 µM, 21 µM and 10 µM.
On to `COc1cccc(Nc2cc(Nc3cccc(C(=O)N4CCN(C(C)=O)CC4)c3)nc(N)n2)c1` [drawing 377], for which the EC50 in assay [1] (24 h) is 91 µM; in assay [2] (Homo sapiens, 24 h), above 100 µM; in assay [3] (24 h), above 100 µM; in assay [4] (24 h), above 100 µM; in assay [5] (Homo sapiens, LN-18, 24 h), 64 µM.
In the case of `CC(=O)N[C@@H]1CCN(C(=O)c2cccc(Nc3cc(N(C)c4cccc(C)c4)ncn3)c2)C1` [drawing 378], the EC50 in assay [1] (24 h) is above 100 µM; in assay [2] (Homo sapiens, 24 h), above 100 µM; in assay [3] (24 h), above 100 µM; in assay [4] (24 h), above 100 µM; in assay [5] (Homo sapiens, LN-18, 24 h) it was above 100 µM.
Turning to `Cc1cccc(Nc2nccc(Nc3cccc(C(=O)NCc4ccc(F)cc4)c3)n2)c1` [drawing 379], the EC50 came out at 28 µM in assay [1] (24 h); 13 µM in assay [2] (Homo sapiens, 24 h); 19 µM in assay [3] (24 h); 13 µM in assay [4] (24 h); 7 µM in assay [5] (Homo sapiens, LN-18, 24 h).
With `CCC(C)(C)NC(=O)c1cccc(Nc2nccc(Nc3ccc4ncsc4c3)n2)c1` [drawing 380], the EC50 in assay [1] (24 h) was found to be 15 µM; in assay [2] (Homo sapiens, 24 h) it was 8 µM; in assay [3] (24 h), 46 µM; in assay [4] (24 h), 22 µM; in assay [5] (Homo sapiens, LN-18, 24 h), 15 µM.
`Cc1cccc(Nc2nccc(Nc3cccc(C(=O)NCCN4CCOCC4)c3)n2)c1` [drawing 381]: the half-maximal effective concentration (EC50) was 17 µM in assay [1] (24 h); 43 µM in assay [2] (Homo sapiens, 24 h); 54 µM in assay [3] (24 h); 36 µM in assay [4] (24 h); 11 µM in assay [5] (Homo sapiens, LN-18, 24 h).
On the same counts, the results for `Cc1cccc(Nc2nccc(Nc3cccc(C(=O)Nc4ccc(F)cc4)c3)n2)c1` [drawing 382] are 30 µM, 14 µM, 75 µM, 27 µM and 6 µM.
With `Clc1ccc(CNc2cc(-c3ccccc3)ncn2)cc1` [drawing 383], the EC50 in assay [1] (24 h) is 33 µM; in assay [2] (Homo sapiens, 24 h), above 100 µM; in assay [3] (24 h), 62 µM; in assay [4] (24 h) it was 38 µM; in assay [5] (Homo sapiens, LN-18, 24 h), 62 µM.
Take `COc1cccc(Nc2nc(N)c(C(=O)c3c(C)[nH]c4ccccc34)s2)c1` [drawing 384]: the EC50 came to 16 µM in assay [1] (24 h); 72 µM in assay [2] (Homo sapiens, 24 h); 19 µM in assay [3] (24 h); 15 µM in assay [4] (24 h); 10 µM in assay [5] (Homo sapiens, LN-18, 24 h).
As to `Cc1cc(-c2ccccc2)c2ccc(N)nc2n1` [drawing 480], the EC50 is above 100 µM in assay [1] (24 h); 58 µM in assay [2] (Homo sapiens, 24 h); 46 µM in assay [3] (24 h).
In the case of `Nc1cccc2cccc(N=C(CC(=O)O)C(=O)O)c12` [drawing 481], the EC50 in assay [1] (24 h) is above 100 µM; in assay [2] (Homo sapiens, 24 h), 63 µM; in assay [3] (24 h) it was above 100 µM.
For the compound `COc1ccc(NC(=O)CC2=Nc3cccc4cccc(c34)NC2=O)cc1` [drawing 482], the EC50 in assay [1] (24 h) was above 100 µM; in assay [2] (Homo sapiens, 24 h) it was 17 µM; in assay [3] (24 h), above 100 µM.
For the compound `O=C(CC1=Nc2cccc3cccc(c23)NC1=O)NCc1cccc(I)c1` [drawing 483], the EC50 in assay [1] (24 h) was 51 µM; in assay [2] (Homo sapiens, 24 h), 10 µM; in assay [3] (24 h), above 100 µM.

Broadly, the EC50 is the concentration that produces a half-maximal response. Read a high EC50 as weaker potency.

For the origin of these results see patent US9963452B2, “Methods, compounds, and compositions for inhibition of ROS” (AUGUSTA PHARMACEUTICALS INC., priority 2013, dated 2018).
